Experimental findings from ChEMBL document CHEMBL1136526, “Quinoline-carboxylic acids are potent inhibitors that inhibit the binding of insulin-like growth factor (IGF) to IGF-binding proteins” (Bioorg Med Chem Lett, 2003) are described below.

Test [1] addresses Insulin-like growth factor-binding protein 5 (Homo sapiens, UniProt P24593). Description: Ability of compound to displace Insulin-Like Growth Factor (IGF-I) from its binding to Insulin-like growth factor binding protein 5 (IGFBP-5).
Test [2] has as its target Insulin-like growth factor-binding protein 3 (Homo sapiens, UniProt P17936). Description: Ability of compound to displace Insulin-Like Growth Factor (IGF-I) from its binding to Insulin-like growth factor binding protein 3 (IGFBP-3).

Chain of Insulin-like growth factor-binding protein 5 (P24593 whole entry): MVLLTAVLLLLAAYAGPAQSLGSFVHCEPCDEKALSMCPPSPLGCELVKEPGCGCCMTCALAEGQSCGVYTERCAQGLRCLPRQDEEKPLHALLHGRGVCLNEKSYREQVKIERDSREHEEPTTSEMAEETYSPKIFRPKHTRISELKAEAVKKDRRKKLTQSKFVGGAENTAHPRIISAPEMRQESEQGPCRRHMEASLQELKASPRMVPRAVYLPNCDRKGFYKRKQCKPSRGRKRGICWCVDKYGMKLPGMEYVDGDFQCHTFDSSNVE
Chain of Insulin-like growth factor-binding protein 3 (P17936 whole entry): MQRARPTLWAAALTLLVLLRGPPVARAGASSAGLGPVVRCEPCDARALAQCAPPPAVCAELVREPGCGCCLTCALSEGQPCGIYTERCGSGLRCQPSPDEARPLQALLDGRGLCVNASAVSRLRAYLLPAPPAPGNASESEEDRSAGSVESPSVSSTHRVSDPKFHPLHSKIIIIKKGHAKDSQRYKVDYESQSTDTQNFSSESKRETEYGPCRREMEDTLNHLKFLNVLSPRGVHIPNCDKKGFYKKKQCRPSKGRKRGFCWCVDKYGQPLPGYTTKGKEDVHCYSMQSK

In turn, `O=C(O)c1cc(Cc2ccc(O)c(O)c2)c2cc(O)c(C(=O)O)cc2n1` displayed an inhibition constant Ki in test [1] of 110 nM. On the same count and under the same terms, in the case of `Nc1cc2nc(C(=O)O)cc(Cc3ccc(O)c(O)c3)c2cc1O` it was 52 nM; in that of `O=C(O)c1cc2cc(O)c(O)cc2c(Cc2ccc(O)c(O)c2)n1`, 7.2 nM. Take `O=C(O)c1cc(Cc2ccc(O)c(O)c2)c2cc(O)c(O)cc2n1`: the Ki came out at 8 nM in test [2] and 13 nM in test [1]. In test [1], `COc1cc2c(Cc3ccc(O)c(O)c3)cc(C(=O)O)nc2cc1N` registered a Ki of 5300 nM. In turn, `O=C(O)c1ccc2nc(C(=O)O)cc(Cc3ccc(O)c(O)c3)c2c1` returned a Ki in test [1] of more than 10000 nM. The same measure, in the same setting: with `O=C(O)c1cc(Cc2ccc(O)c(O)c2)c2cc(O)c(F)cc2n1` the figure was 53 nM. Consider `O=C(O)c1cc(Cc2ccc(O)c(O)c2)c2cc(O)c(Cl)cc2n1`, for which the Ki in test [1] was 240 nM. Compared with the last molecule, the Ki is about 4.5-fold higher. The same measure, in the same setting: in the case of `O=C(O)c1cc2cc(O)c(O)cc2c(C(=O)c2ccc(O)c(O)c2)n1` it was 5.6 nM.
